Results: US11040035B2, “3-oxo-2,6-diphenyl-2,3-dihydropyridazine-4-carboxamides” (BAYER PHARMA AKTIENGESELLSCHAFT, priority 2016, dated 2021)
Read-outs that look alike come from different tables or passages of the source.

Experiments:
[1] = test system: AHR-regulated gene CYP1A1; experiment: In vitro assay 3: AHR-regulated CYP1A1 expression in human cell line (U937, qPCR)
AHR [2] = molecular target: T1, AHR (Homo sapiens, UniProt P35869); experiment: In vitro assay 2: agonism in human cell line (transactivation assay)
T1 sequence (P35869 11-848): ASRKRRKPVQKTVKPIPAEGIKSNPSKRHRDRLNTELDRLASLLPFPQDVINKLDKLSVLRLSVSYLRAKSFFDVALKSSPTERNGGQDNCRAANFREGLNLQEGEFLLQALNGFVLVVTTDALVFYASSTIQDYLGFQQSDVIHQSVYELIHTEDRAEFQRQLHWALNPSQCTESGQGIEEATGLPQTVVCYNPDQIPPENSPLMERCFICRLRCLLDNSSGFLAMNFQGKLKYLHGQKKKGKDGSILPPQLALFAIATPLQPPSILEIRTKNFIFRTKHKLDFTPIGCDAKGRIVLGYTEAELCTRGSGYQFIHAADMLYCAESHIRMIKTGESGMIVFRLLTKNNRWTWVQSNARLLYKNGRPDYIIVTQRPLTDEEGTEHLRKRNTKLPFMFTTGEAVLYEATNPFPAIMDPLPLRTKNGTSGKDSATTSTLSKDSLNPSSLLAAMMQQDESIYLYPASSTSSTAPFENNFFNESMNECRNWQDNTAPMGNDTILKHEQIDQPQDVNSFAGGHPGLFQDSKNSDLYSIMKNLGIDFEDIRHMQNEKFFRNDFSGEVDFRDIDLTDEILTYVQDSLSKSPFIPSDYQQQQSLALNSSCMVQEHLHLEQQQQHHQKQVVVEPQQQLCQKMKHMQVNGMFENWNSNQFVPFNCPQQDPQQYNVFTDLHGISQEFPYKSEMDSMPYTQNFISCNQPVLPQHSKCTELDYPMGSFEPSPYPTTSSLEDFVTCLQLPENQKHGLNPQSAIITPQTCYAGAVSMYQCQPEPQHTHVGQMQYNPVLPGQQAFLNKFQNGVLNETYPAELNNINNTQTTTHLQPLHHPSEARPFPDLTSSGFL

AHR [3] = molecular target: T1, AHR; experiment: In vitro assay 1: antagonism in human cell line (transactivation assay, kynurenic acid prestimulated); details: Assay 1: AHR-luc Hum Antagonism IC50 [M], 150 μM kynurenic acid, 20 hours, firefly luciferase
[4] = Homo sapiens, U-937, 6 h, read-out: Assay 3: Hum CYP1A1 Antagonism IC50 [M], U937 cells, 200 μM KA, 6 hours, qPCR
[5] = Assay 2: AHR-luc Hum Agonism IC50 [M], no kynurenic acid, 20 hours, firefly luciferase
[6] = read-out: Assay 3: Hum CYP1A1 Antagonism IC50, U937 cells, 200 μM KA, 6 hours, qPCR
[7] = read-out: Assay 2: AHR-luc Hum Agonism IC50, no kynurenic acid, 20 hours, firefly luciferase

| Structure (SMILES) | IC50 [1, 4] | IC50 (AHR [2]; [5]) | IC50 (AHR [3]) | IC50 [1, 6] | IC50 (AHR [2]; [7]) |
| --- | --- | --- | --- | --- | --- |
| O=C(N[C@H]1CCCC[C@@H]1O)c1cc(-c2ccc(Cl)cc2)nn(-c2cccc(F)c2)c1=O (single isomer, unassigned) [Example 118, 6-(4-chlorophenyl)-2-(3-fluorophenyl)-N-(trans-2-hydroxycyclohexyl)-3-oxo-2,3-dihydropyridazine-4-carboxamide] | 3.13e-08 M | > 2e-05 M | 3.25e-08 M | – | – |
| O=C(N[C@H]1CCC[C@@H]1O)c1cc(-c2ccc(Cl)cc2)nn(-c2cccc(F)c2)c1=O (single isomer, unassigned) [Example 124, 6-(4-Chlorophenyl)-2-(3-fluorophenyl)-N-(trans-2-hydroxycyclopentyl)-3-oxo-2,3-dihydropyridazine-4-carboxamide] | 3.59e-08 M | > 2e-05 M | 3.65e-08 M | – | – |
| COc1ccc(-c2cc(C(=O)NCC(O)C(F)(F)F)c(=O)n(-c3cccc(F)c3)n2)cc1 (single isomer, unassigned) [Example 127, 2-(3-Fluorophenyl)-6-(4-methoxyphenyl)-3-oxo-N-(3,3,3-trifluoro-2-hydroxypropyl)-2,3-dihydropyridazine-4-carboxamide] | – | > 2e-05 M | 4.05e-08 M | 6.08e-08 M | – |
| COc1ccc(-c2cc(C(=O)NCC(O)C(F)(F)F)c(=O)n(-c3cccc(F)c3)n2)cc1 (single isomer, unassigned) [Example 128, 2-(3-Fluorophenyl)-6-(4-methoxyphenyl)-3-oxo-N-(3,3,3-trifluoro-2-hydroxypropyl)-2,3-dihydropyridazine-4-carboxamide] | – | – | 1.7e-07 M | 6e-07 M | > 2e-05 M |
| O=C(N[C@H]1COC[C@@H]1O)c1cc(-c2ccc(Cl)cc2)nn(-c2cccc(F)c2)c1=O (single isomer, unassigned) [Example 135, 6-(4-Chlorophenyl)-2-(3-fluorophenyl)-N-(trans-4-hydroxytetrahydrofuran-3-yl)-3-oxo-2,3-dihydropyridazine-4-carboxamide] | 1.32e-07 M | > 2e-05 M | 1.41e-07 M | – | – |
| O=C(NC(CO)C1CCOC1)c1cc(-c2ccc(OC(F)F)cc2)nn(-c2cccc(F)c2)c1=O (single isomer, unassigned) [Example 145, 6-[4-(Difluoromethoxy)phenyl]-2-(3-fluorophenyl)-N-{(2-hydroxy-1-tetrahydrofuran-3-yl)ethyl}-3-oxo-2,3-dihydropyridazine-4-carboxamide] | 3.89e-08 M | > 2e-05 M | 9.33e-08 M | – | – |
| O=C(NC(CO)C(F)(F)F)c1cc(-c2ccc(OC(F)(F)F)cc2)nn(-c2cccc(F)c2)c1=O (single isomer, unassigned) [Example 170, 2-(3-Fluorophenyl)-3-oxo-N-(1,1,1-trifluoro-3-hydroxypropan-2-yl)-6-[4-(trifluoromethoxy)phenyl]-2,3-dihydropyridazine-4-carboxamide] | 1.42e-08 M | > 2e-05 M | 1.19e-08 M | – | – |
| O=C(NC(CO)C1CCOC1)c1cc(-c2ccc(OC(F)(F)F)cc2)nn(-c2cccc(F)c2)c1=O (single isomer, unassigned) [Example 175, 2-(3-Fluorophenyl)-N-[2-hydroxy-1-(tetrahydrofuran-3-yl)ethyl]-3-oxo-6-[4-(trifluoromethoxy)phenyl]-2,3-dihydropyridazine-4-carboxamide] | – | > 2e-05 M | 2.91e-08 M | 3.76e-08 M | – |
| O=C(NC(CO)C1CCOC1)c1cc(-c2ccc(OC(F)(F)F)cc2)nn(-c2cccc(F)c2)c1=O (single isomer, unassigned) [Example 176, 2-(3-Fluorophenyl)-N-[2-hydroxy-1-(tetrahydrofuran-3-yl)ethyl]-3-oxo-6-[4-(trifluoromethoxy)phenyl]-2,3-dihydropyridazine-4-carboxamide] | – | – | 1.71e-07 M | 1.02e-07 M | > 2e-05 M |
| O=C(NC(CO)C1CCOC1)c1cc(-c2ccc(OC(F)(F)F)cc2)nn(-c2cccc(F)c2)c1=O (single isomer, unassigned) [Example 177, 2-(3-Fluorophenyl)-N-[2-hydroxy-1-(tetrahydrofuran-3-yl)ethyl]-3-oxo-6-[4-(trifluoromethoxy)phenyl]-2,3-dihydropyridazine-4-carboxamide] | – | – | 3.19e-07 M | 6e-07 M | > 2e-05 M |
| O=C(NC(CO)C1CCOC1)c1cc(-c2ccc(OC(F)(F)F)cc2)nn(-c2cccc(F)c2)c1=O (single isomer, unassigned) [Example 178, 2-(3-Fluorophenyl)-N-[2-hydroxy-1-(tetrahydrofuran-3-yl)ethyl]-3-oxo-6-[4-(trifluoromethoxy)phenyl]-2,3-dihydropyridazine-4-carboxamide] | – | – | 1.27e-07 M | 1.13e-07 M | > 2e-05 M |
| CC(O)C(C)NC(=O)c1cc(-c2ccc(OC(F)(F)F)cc2)nn(-c2cccc(F)c2)c1=O (single isomer, unassigned) [Example 181, 2-(3-Fluorophenyl)-N-(3-hydroxybutan-2-yl)-3-oxo-6-[4-(trifluoromethoxy)phenyl]-2,3-dihydropyridazine-4-carboxamide] | 2.12e-07 M | – | 8.02e-08 M | – | > 2e-05 M |
| O=C(NCC(O)C(F)(F)F)c1cc(-c2ccc(OC(F)(F)F)cc2)nn(-c2cccc(F)c2)c1=O (single isomer, unassigned) [Example 183, 2-(3-Fluorophenyl)-3-oxo-N-(3,3,3-trifluoro-2-hydroxypropyl)-6-[4-(trifluoromethoxy)phenyl]-2,3-dihydropyridazine-4-carboxamide] | – | > 2e-05 M | 3.78e-08 M | 4.14e-08 M | – |
| O=C(NCC(O)C(F)(F)F)c1cc(-c2ccc(OC(F)(F)F)cc2)nn(-c2cccc(F)c2)c1=O (single isomer, unassigned) [Example 184, 2-(3-Fluorophenyl)-3-oxo-N-(3,3,3-trifluoro-2-hydroxypropyl)-6-[4-(trifluoromethoxy)phenyl]-2,3-dihydropyridazine-4-carboxamide] | – | – | 1.34e-07 M | 1.29e-07 M | > 2e-05 M |
| CC(O)C(NC(=O)c1cc(-c2ccc(Cl)cc2)nn(-c2cccc(F)c2)c1=O)C(F)(F)F (single isomer, unassigned) [Example 198, 6-(4-chlorophenyl)-2-(3-fluorophenyl)-3-oxo-N-(1,1,1-trifluoro-3-hydroxybutan-2-yl)-2,3-dihydropyridazine-4-carboxamide] | 1.49e-08 M | > 2e-05 M | 1.34e-08 M | – | – |
| CC(NC(=O)c1cc(-c2ccc(C(F)(F)F)cc2)nn(-c2cccc(F)c2)c1=O)C(O)C(F)(F)F (single isomer, unassigned) [Example 270, Isomer no. 3 of 2-(3-fluorophenyl)-3-oxo-N-(4,4,4-trifluoro-3-hydroxybutan-2-yl)-6-[4-(trifluoromethyl)phenyl]-2,3-dihydropyridazine-4-carboxamide] | – | > 2e-05 M | 6.12e-09 M | 5.44e-09 M | – |
| CC(NC(=O)c1cc(-c2ccc(C(F)(F)F)cc2)nn(-c2cccc(F)c2)c1=O)C(O)C(F)(F)F (single isomer, unassigned) [Example 271, Isomer no. 4 of 2-(3-fluorophenyl)-3-oxo-N-(4,4,4-trifluoro-3-hydroxybutan-2-yl)-6-[4-(trifluoromethyl)phenyl]-2,3-dihydropyridazine-4-carboxamide] | – | > 2e-05 M | 2.06e-08 M | 3.01e-08 M | – |
| O=C(N[C@@H]1CCCC(F)(F)[C@H]1O)c1cc(-c2ccc(Cl)cc2)nn(-c2cccc(F)c2)c1=O (single isomer, unassigned) [Example 275, 6-(4-Chlorophenyl)-N-[(trans)-3,3-difluoro-2-hydroxycyclohexyl]-2-(3-fluorophenyl)-3-oxo-2,3-dihydropyridazine-4-carboxamide] | 3.39e-08 M | > 2e-05 M | 1.81e-08 M | – | – |
| O=C(NC(CO)C1CCOC1)c1cc(-c2ccc(Cl)c(F)c2)nn(-c2cccc(F)c2)c1=O (single isomer, unassigned) [Example 293, 6-(4-Chloro-3-fluorophenyl)-2-(3-fluorophenyl)-N-[2-hydroxy-1-(tetrahydrofuran-3-yl)ethyl]-3-oxo-2,3-dihydropyridazine-4-carboxamide] | 6.98e-08 M | – | 4.92e-08 M | – | > 2e-05 M |
| C[C@@H](CO)CNC(=O)c1cc(-c2ccc(C(F)(F)F)cc2)nn(-c2cccc(F)c2)c1=O (single isomer, unassigned) [Example 329] | 3.22e-08 M | > 2e-05 M | 2.8e-08 M | – | – |
